Legend:
[1] = tested on: Breast cancer cell line MCF-7 and blood cells (leucocytes and erythrocytes); test: 2-NBDG incorporation observed visually under a fluorescence microscope; assay type: cell-based, human; settings: sample 1, mixture of MCF-7 and blood cells, 37° C., 40 minutes
Procedure: From venous blood of a healthy person, a […] and precipitates were separated by centrifugation according to the conventional method. From the […], a leucocyte layer and an erythrocyte layer were partially collected, and then resuspended in PBS to prepare a leucocyte sample and a erythrocyte sample, respectively.
Breast cancer cell line MCF-7 (purchased from DS Pharma Biomedical Co., Ltd). was cultured at 37° C. with 5% (v/v) CO2 using α-MEM culture medium (Invitrogen, supplemented with 10% (v/v) FBS, 2 mM L-glutamine, 100 U/mL penicillin and 100 μg/mL streptomycin). Immediately before the test, the cells were harvested with 0.25% trypsin-EDTA and washed with PBS, thereby preparing a cancer cell line sample.
To each of 300 μL (4×10^5 cells/mL) of the cancer cell line, the blood cells (leucocytes and erythrocytes) or a mixture thereof was added 30 μL of 10 mM 2-[N-(7-nitrobenz-2-oxa-1,3-diazol-4-yl)amino]-2-deoxy-D-glucose (2-NBDG) (Wako Pure Chemical Industries, Ltd.) according to the description in Table 2, thereby preparing samples 1 to 7. These samples were then incubated at 37° C. for 40 minutes. To the sample to which 2-NBDG was not added, a corresponding amount of PBS was added instead of 2-NBDG.
After incubation, each sample was centrifuged at 2,000 rpm for 5 minutes (Hitachi Ltd.) to harvest the cells. To the harvested cells was added 10 μL of an anti-EpCAM antibody-PE (R&D systems), and the mixture was allowed to stand for 30 minutes in the cool and dark place.
After 30 minutes, the mixture was washed with 1,000 μL of PBS, and the cells were harvested by centrifugation at 2000 rpm for 5 minutes in accordance with the conventional method.
The harvested cells were resuspended in 50 μL of PBS, and the entire volume thereof was transferred to a 96-well plate, thereby preparing an observation sample.
Each of the observation samples was observed under a fluorescence microscope (Nikon Corp.), and an amount of 2-NBDG incorporated was visually observed.

Blood cells = test: Aminolevulinic acid (with FeCl2 and ascorbic acid at the same concentration) labeling, fluorescence microscopy image analysis (false-positive/negative rate); assay type: cell-based, human
Text: Blood was collected from a human subject using a vacuum blood collection tube (with EDTA•2K). Blood cells were separated using HetaSep (STEMCELL Technologies) in accordance with manufacturer's instructions.
When performing the hemolyzing treatment, the collected blood cell fraction was hemolyzed using ammonium chloride (STEMCELL Technologies) at room temperature according to the manufacture's manuals.
The number of the cells was counted using a hemacytometer in accordance with the conventional method, and then 10^5 to 10^6 cells per sample (cell suspension) was aliquoted. The sample was centrifuged to remove the supernatant. Subsequently, aminolevulinic acid 5-AMINOLEVULINATE HYDROCHLORIDE (trade name, Cosmo Bio Co., Ltd., at the final concentration given in Table 7 or 8) dissolved in Dulbecco's PBS (+) and FeCl2 and ascorbic acid having the same concentration as that of aminolevulinic acid, respectively, were added thereto, and the cells were suspended well. The number of the cells was adjusted, and then the cells were added dropwise to a 384-well plate. The plate was centrifuged to spin down the cells. The image was captured with a fluorescence microscope (Nikon Corp.).
The wavelengths for the fluorescence filter set: EX (excitation wavelength): 402±7.5, DM: 430 or longer, BA (fluorescence wavelength): 625±15.
The acquired images were analyzed using an image analysis software NIS-ELEMENTS (trade name, Nikon Corp.) to evaluate the fluorescence intensity of the cell.

[2] = hemolyzed, 0.3 mM, 60 min, 37° C., threshold value 198 (Gastric cancer)
[3] = hemolyzed, 0.3 mM, 60 min, 37° C., threshold value 203 (Fibrosarcoma)
[4] = hemolyzed, 0.3 mM, 60 min, 37° C., threshold value 207 (Colon adenocarcinoma)
[5] = hemolyzed, 0.3 mM, 60 min, 37° C., threshold value 212 (Alveolar epithelial cancer)
[6] = hemolyzed, 0.3 mM, 60 min, 37° C., threshold value 265 (Prostate cancer)
[7] = hemolyzed, 0.3 mM, 60 min, 37° C., threshold value 268 (Breast adenocarcinoma)
[8] = hemolyzed, 0.1 mM, 37° C., 60 min
[9] = hemolyzed, 0.3 mM, 37° C., 60 min (concentration series)
[10] = hemolyzed, 1 mM, 37° C., 60 min
[11] = hemolyzed, 4° C., 0.3 mM, 60 min
[12] = hemolyzed, 23° C., 0.3 mM, 60 min
[13] = hemolyzed, 37° C., 0.3 mM, 60 min (temperature series)
[14] = hemolyzed, 30 min, 0.3 mM, 37° C.
[15] = hemolyzed, 60 min, 0.3 mM, 37° C. (time series)
[16] = hemolyzed, 120 min, 0.3 mM, 37° C.
[17] = without hemolyzing treatment, 0.1 mM, 37° C., 60 min
[18] = without hemolyzing treatment, 0.3 mM, 37° C., 60 min (concentration series)
[19] = without hemolyzing treatment, 1 mM, 37° C., 60 min
[20] = without hemolyzing treatment, 4° C., 0.3 mM, 60 min
[21] = without hemolyzing treatment, 23° C., 0.3 mM, 60 min
[22] = without hemolyzing treatment, 37° C., 0.3 mM, 60 min (temperature series)
[23] = without hemolyzing treatment, 30 min, 0.3 mM, 37° C.
[24] = without hemolyzing treatment, 60 min, 0.3 mM, 37° C. (time series)
[25] = without hemolyzing treatment, 120 min, 0.3 mM, 37° C.

In the case of `O=[N+]([O-])c1ccc(N[C@H]2C(O)O[C@H](CO)[C@@H](O)[C@@H]2O)c2nonc12` (stereo partly drawn) [2-NBDG, 2-[N-(7-nitrobenz-2-oxa-1,3-diazol-4-yl)amino]-2-deoxy-D-glucose], the “fluorescence image of erythrocyte cell” value [1] is reported as “not observed at all”, the “fluorescence intensity of the leucocyte cell image relative to the cancer cell” value [1] is reported as “equal to or less than half the fluorescence intensity of the cancer cell” and the “observation of the cancer cell line in the fluorescence image” value ([1]; FIGS. 4 to 6) is reported as “clearly observed”.

In the case of `NCC(=O)CCC(=O)O` [aminolevulinic acid, 5-amino-4-oxopentanoic acid], the “Negative rate (Blood cells (fresh blood))” value (Blood cells; [2]) is reported as 95.2%, the “Positive rate (Blood cells (fresh blood))” value (Blood cells; [2]) is reported as 4.8% and the “Negative rate (Blood cells (fresh blood))” value (Blood cells; [3]) is reported as 95.2%. For the same compound, the “Positive rate (Blood cells (fresh blood))” value (Blood cells; [3]) was 4.8%, the “Negative rate (Blood cells (fresh blood))” value (Blood cells; [4]) was 95.2% and the “Positive rate (Blood cells (fresh blood))” value (Blood cells; [4]) was 4.8%. For the same compound, the “Negative rate (Blood cells (fresh blood))” value (Blood cells; [5]) was 95.2%, the “Positive rate (Blood cells (fresh blood))” value (Blood cells; [5]) was 4.8% and the “Negative rate (Blood cells (fresh blood))” value (Blood cells; [6]) was 95.2%. The “Positive rate (Blood cells (fresh blood))” value (Blood cells; [6]) was 4.8%, the “Negative rate (Blood cells (fresh blood))” value (Blood cells; [7]) was 95.6% and the “Positive rate (Blood cells (fresh blood))” value (Blood cells; [7]) was 4.4%. The “Negative rate (Blood cells)” value (Blood cells; [8]) was 98%, the “Positive rate (Blood cells)” value (Blood cells; [8]) was 2% and the “Negative rate (Blood cells)” value (Blood cells; [9]) was 93%. For the same compound, the “Positive rate (Blood cells)” value (Blood cells; [9]) was 7%, the “Negative rate (Blood cells)” value (Blood cells; [10]) was 87% and the “Positive rate (Blood cells)” value (Blood cells; [10]) was 13%. The “Negative rate (Blood cells)” value (Blood cells; [11]) was 98%, the “Positive rate (Blood cells)” value (Blood cells; [11]) was 2% and the “Negative rate (Blood cells)” value (Blood cells; [12]) was 98%. The “Positive rate (Blood cells)” value (Blood cells; [12]) was 2%, the “Negative rate (Blood cells)” value (Blood cells; [13]) was 88% and the “Positive rate (Blood cells)” value (Blood cells; [13]) was 12%. For the same compound, the “Negative rate (Blood cells)” value (Blood cells; [14]) was 98%, the “Positive rate (Blood cells)” value (Blood cells; [14]) was 2% and the “Negative rate (Blood cells)” value (Blood cells; [15]) was 100%. For the same compound, the “Positive rate (Blood cells)” value (Blood cells; [15]) was 0%, the “Negative rate (Blood cells)” value (Blood cells; [16]) was 94% and the “Positive rate (Blood cells)” value (Blood cells; [16]) was 6%. The “Negative rate (Blood cells)” value (Blood cells; [17]) was 98%, the “Positive rate (Blood cells)” value (Blood cells; [17]) was 2% and the “Negative rate (Blood cells)” value (Blood cells; [18]) was 99%. The “Positive rate (Blood cells)” value (Blood cells; [18]) was 1%, the “Negative rate (Blood cells)” value (Blood cells; [19]) was 93% and the “Positive rate (Blood cells)” value (Blood cells; [19]) was 7%. The “Negative rate (Blood cells)” value (Blood cells; [20]) was 98%, the “Positive rate (Blood cells)” value (Blood cells; [20]) was 2% and the “Negative rate (Blood cells)” value (Blood cells; [21]) was 100%. For the same compound, the “Positive rate (Blood cells)” value (Blood cells; [21]) was 0%, the “Negative rate (Blood cells)” value (Blood cells; [22]) was 100% and the “Positive rate (Blood cells)” value (Blood cells; [22]) was 0%. For the same compound, the “Negative rate (Blood cells)” value (Blood cells; [23]) was 98%, the “Positive rate (Blood cells)” value (Blood cells; [23]) was 2% and the “Negative rate (Blood cells)” value (Blood cells; [24]) was 99%. The “Positive rate (Blood cells)” value (Blood cells; [24]) was 1%, the “Negative rate (Blood cells)” value (Blood cells; [25]) was 86% and the “Positive rate (Blood cells)” value (Blood cells; [25]) was 14%.
